{"source": "patent US20050124579A1", "about": "“Benzyl alcohol derivatives” (priority 2002, published 2005)", "key": {"[1]": {"tested_on": "Escherichia coli NCTC 8196", "assay": "Determination of the minimum inhibition concentration (MIC value) in microtitre plates", "format": "cell-based", "design": "unit not given here", "details": "CASO broth, 37° C., 48 hours, optical density at 620 nm; MIC = <20% growth vs growth control", "from_the_text": "(§1) Determination of the Minimum Inhibition Concentration (MIC Value) in Microtitre Plates Nutrient Medium: Casein-soy flour-peptone broth for the preparation of the precultures of the test bacteria and yeast. Examples of Test Microbes: Bacteria: Staphylococcus aureus ATCC 6538 • Escherichia coli NCTC 8196 (=EC) Procedure: The test substances are predissolved in dimethyl sulphoxide (DMSO) and tested in a dilution series of 1:2. The bacteria are cultivated overnight in CASO broth and sponged off with 10 ml of 0.85% sodium chloride solution (+0.1% TritonX-100). All of the test microbes are adjusted to a microbial count of 1-5×10^6 CFU/ml with 0.85% sodium chloride solution. The test substances are prepipetted at 8 μl per well into microtitre plates. Prediluted microbial suspensions are diluted 1:100 in CASO broth and added at 192 μl per well to the test substances. The test mixtures are incubated at 37° C. for 48 hours. After incubation, the growth is determined by reference to the clouding of the test mixtures (optical density) at 620 nm in a microplate reader. The minimum inhibition concentration (MIC value) is the concentration of substance at which (compared with the growth control) a significant growth inhibition (<20% growth) of the test microbes is established. One microtitre plate is prepared per test microbe and substance concentration. All of the substances are tested in duplicate."}, "[2]": {"tested_on": "Staphylococcus aureus ATCC 6538", "assay": "Determination of the minimum inhibition concentration (MIC value) in microtitre plates", "format": "cell-based", "details": "CASO broth, 37° C., 48 hours, optical density at 620 nm, MIC = <20% growth vs growth control", "from_the_text": "as §1"}}}
{"molecule": "CCCCCCCCOc1ccc(CO)cc1OCCCCCCCC", "note": "[(30)]", "values": [{"measurement": "MIC Escherichia coli", "setting": "[1]", "result": 60}, {"measurement": "MIC Staphylococcus aureus", "setting": "[2]", "result": 60, "unit": "ppm"}]}
{"molecule": "OCc1ccc(OC2CCCCC2)cc1OC1CCCCC1", "note": "[(33)]", "values": [{"measurement": "MIC Escherichia coli", "setting": "[1]", "result": ">120"}, {"measurement": "MIC Staphylococcus aureus", "setting": "[2]", "result": 15, "unit": "ppm"}]}
{"molecule": "CCCCCCCCOc1cccc(CO)c1", "note": "[(14)]", "values": [{"measurement": "MIC Escherichia coli", "setting": "[1]", "result": 30}, {"measurement": "MIC Staphylococcus aureus", "setting": "[2]", "result": 15, "unit": "ppm"}]}
{"molecule": "C[Si](C)(C)CCCOc1cccc(CO)c1", "note": "[(12)]", "values": [{"measurement": "MIC Escherichia coli", "setting": "[1]", "result": 60}, {"measurement": "MIC Staphylococcus aureus", "setting": "[2]", "result": 60, "unit": "ppm"}]}
{"molecule": "CCCCCCCCOc1ccccc1CO", "note": "[(5)]", "values": [{"measurement": "MIC Escherichia coli", "setting": "[1]", "result": ">120"}, {"measurement": "MIC Staphylococcus aureus", "setting": "[2]", "result": 60, "unit": "ppm"}]}
{"molecule": "COc1ccc(OC2CCCCC2)c(CO)c1", "note": "[(24)]", "values": [{"measurement": "MIC Escherichia coli", "setting": "[1]", "result": 60}, {"measurement": "MIC Staphylococcus aureus", "setting": "[2]", "result": 60, "unit": "ppm"}]}
{"molecule": "CCCCOc1ccc(OC)cc1CO", "note": "[(19)]", "values": [{"measurement": "MIC Escherichia coli", "setting": "[1]", "result": 60}, {"measurement": "MIC Staphylococcus aureus", "setting": "[2]", "result": 120, "unit": "ppm"}]}
{"molecule": "COc1ccc(OC[Si](C)(C)C)c(CO)c1", "note": "[(17)]", "values": [{"measurement": "MIC Escherichia coli", "setting": "[1]", "result": 60}, {"measurement": "MIC Staphylococcus aureus", "setting": "[2]", "result": 60, "unit": "ppm"}]}
{"molecule": "CCC(CC)Oc1ccccc1CO", "note": "[(6)]", "values": [{"measurement": "MIC Escherichia coli", "setting": "[1]", "result": ">120"}, {"measurement": "MIC Staphylococcus aureus", "setting": "[2]", "result": 120, "unit": "ppm"}]}
{"molecule": "CCCCCCCCCCCCOc1ccc(CO)cc1OCCCCCCCCCCCC", "note": "[(31)]", "values": [{"measurement": "MIC Escherichia coli", "setting": "[1]", "result": ">120"}, {"measurement": "MIC Staphylococcus aureus", "setting": "[2]", "result": 120, "unit": "ppm"}]}
{"molecule": "COc1ccc(OCc2ccccc2)c(CO)c1", "note": "[(25)]", "values": [{"measurement": "MIC Escherichia coli", "setting": "[1]", "result": 120}, {"measurement": "MIC Staphylococcus aureus", "setting": "[2]", "result": 120, "unit": "ppm"}]}
{"molecule": "C[Si](C)(COc1cccc(CO)c1)c1ccccc1", "note": "[(13)]", "values": [{"measurement": "MIC Escherichia coli", "setting": "[1]", "result": ">120"}, {"measurement": "MIC Staphylococcus aureus", "setting": "[2]", "result": 60, "unit": "ppm"}]}
{"molecule": "COCCOCCOc1ccc(CO)cc1", "note": "[(9)]", "values": [{"measurement": "MIC Escherichia coli", "setting": "[1]", "result": 60}, {"measurement": "MIC Staphylococcus aureus", "setting": "[2]", "result": 30, "unit": "ppm"}]}
{"molecule": "CCCCCCCCOc1c(CO)cccc1OC", "note": "[(27)]", "values": [{"measurement": "MIC Escherichia coli", "setting": "[1]", "result": 60}, {"measurement": "MIC Staphylococcus aureus", "setting": "[2]", "result": 30, "unit": "ppm"}]}
{"molecule": "C[Si](C)(C)CCCOc1ccc(CO)cc1", "note": "[(8)]", "values": [{"measurement": "MIC Escherichia coli", "setting": "[1]", "result": 60}, {"measurement": "MIC Staphylococcus aureus", "setting": "[2]", "result": 60, "unit": "ppm"}]}
{"molecule": "CCCCCCCCOc1ccc(OC)cc1CO", "note": "[(21)]", "values": [{"measurement": "MIC Escherichia coli", "setting": "[1]", "result": 30}, {"measurement": "MIC Staphylococcus aureus", "setting": "[2]", "result": 30, "unit": "ppm"}]}
{"molecule": "CCCCCCOc1ccc(OC)cc1CO", "note": "[(20)]", "values": [{"measurement": "MIC Escherichia coli", "setting": "[1]", "result": 60}, {"measurement": "MIC Staphylococcus aureus", "setting": "[2]", "result": 60, "unit": "ppm"}]}
{"molecule": "CCCCCC(C)Oc1ccccc1CO", "note": "(stereo not drawn) [(7)]", "values": [{"measurement": "MIC Escherichia coli", "setting": "[1]", "result": ">120"}, {"measurement": "MIC Staphylococcus aureus", "setting": "[2]", "result": 120, "unit": "ppm"}]}
{"molecule": "CCCCCCCCOc1ccc(CO)cc1OC", "note": "[(28)]", "values": [{"measurement": "MIC Escherichia coli", "setting": "[1]", "result": 30}, {"measurement": "MIC Staphylococcus aureus", "setting": "[2]", "result": 30, "unit": "ppm"}]}
{"molecule": "C[Si](C)(C)COc1ccccc1CO", "note": "[(4)]", "values": [{"measurement": "MIC Escherichia coli", "setting": "[1]", "result": ">120"}, {"measurement": "MIC Staphylococcus aureus", "setting": "[2]", "result": 120, "unit": "ppm"}]}
{"molecule": "CCCCCCCCOc1ccc(CO)cc1", "note": "[(11)]", "values": [{"measurement": "MIC Escherichia coli", "setting": "[1]", "result": 15}, {"measurement": "MIC", "setting": "[2]; Staphylococcus aureus, ATCC6538", "result": 15, "unit": "µg/mL"}]}
{"molecule": "CCC(CC)Oc1ccc(OC)cc1CO", "note": "[(22)]", "values": [{"measurement": "MIC Escherichia coli", "setting": "[1]", "result": 60}, {"measurement": "MIC Staphylococcus aureus", "setting": "[2]", "result": 60, "unit": "ppm"}]}
{"molecule": "COc1ccc(OCCOc2ccccc2)c(CO)c1", "note": "[(18)]", "values": [{"measurement": "MIC Escherichia coli", "setting": "[1]", "result": 60}, {"measurement": "MIC Staphylococcus aureus", "setting": "[2]", "result": 120, "unit": "ppm"}]}
{"molecule": "CCCCCC(C)Oc1ccc(OC)cc1CO", "note": "(stereo not drawn) [(23)]", "values": [{"measurement": "MIC Escherichia coli", "setting": "[1]", "result": 60}, {"measurement": "MIC Staphylococcus aureus", "setting": "[2]", "result": 60, "unit": "ppm"}]}
{"molecule": "CCCCCCCCOc1ccc(OCCCCCCCC)c(CO)c1", "note": "[(34)]", "values": [{"measurement": "MIC Escherichia coli", "setting": "[1]", "result": 60}, {"measurement": "MIC Staphylococcus aureus", "setting": "[2]", "result": 120, "unit": "ppm"}]}
{"molecule": "C=CC[Si](C)(C)COc1ccc(CO)cc1OC[Si](C)(C)CC=C", "note": "[(29)]", "values": [{"measurement": "MIC Escherichia coli", "setting": "[1]", "result": ">120"}, {"measurement": "MIC Staphylococcus aureus", "setting": "[2]", "result": 120, "unit": "ppm"}]}
{"molecule": "CCCCCC(C)Oc1cccc(CO)c1", "note": "(stereo not drawn) [(15)]", "values": [{"measurement": "MIC Escherichia coli", "setting": "[1]", "result": 120}, {"measurement": "MIC Staphylococcus aureus", "setting": "[2]", "result": 120, "unit": "ppm"}]}
{"molecule": "CCCCCCCCCCCCOc1ccc(CO)c(OCCCCCCCCCCCC)c1", "note": "[(32)]", "values": [{"measurement": "MIC Escherichia coli", "setting": "[1]", "result": ">120"}, {"measurement": "MIC Staphylococcus aureus", "setting": "[2]", "result": 60, "unit": "ppm"}]}
{"molecule": "C[Si](C)(C)CCCOc1ccccc1CO", "note": "[(3)]", "values": [{"measurement": "MIC Escherichia coli", "setting": "[1]", "result": ">120"}, {"measurement": "MIC Staphylococcus aureus", "setting": "[2]", "result": 60, "unit": "ppm"}]}
{"molecule": "COc1ccc(OCCC[Si](C)(C)C)c(CO)c1", "note": "[(16)]", "values": [{"measurement": "MIC Escherichia coli", "setting": "[1]", "result": ">120"}, {"measurement": "MIC Staphylococcus aureus", "setting": "[2]", "result": 15, "unit": "ppm"}]}
{"molecule": "CCCCCCCCCCCCOc1ccc(OCCCCCCCCCCCC)c(CO)c1", "note": "[(35)]", "values": [{"measurement": "MIC Escherichia coli", "setting": "[1]", "result": 120}, {"measurement": "MIC Staphylococcus aureus", "setting": "[2]", "result": 60, "unit": "ppm"}]}
{"molecule": "CCCCCCCCOc1cccc(OC)c1CO", "note": "[(26)]", "values": [{"measurement": "MIC Escherichia coli", "setting": "[1]", "result": 15}, {"measurement": "MIC Staphylococcus aureus", "setting": "[2]", "result": 15, "unit": "ppm"}]}
{"molecule": "CCCCCCOc1ccc(CO)cc1", "note": "[(10)]", "values": [{"measurement": "MIC Escherichia coli", "setting": "[1]", "result": 60}, {"measurement": "MIC Staphylococcus aureus", "setting": "[2]", "result": 120, "unit": "ppm"}]}
